Measurements: US20220243210A1, “ANGIOTENSIN II TYPE 1 RECEPTOR TARGETED OLIGONUCLEOTIDES AND USES THEREOF” (Ionis Pharmaceuticals, Inc., priority 2019, published 2022)
pIC50: −log10 of the molar value.

Experiments:
human MALAT1 RNA [1] = experiment: MALAT1 RNA reduction in HEK-AGTR1 FAP cells, free uptake, 48 hours; format: cell-based; conditions: 48 hours; for MALAT (% control): relative to untreated control cells
Method: At the end of the treatment period, total RNA was isolated from the cells and MALAT1 RNA levels were measured by quantitative real-time PCR. […] MALAT1 RNA levels were normalized according to total RNA content, as measured by RIBOGREEN®. […] The half maximal inhibitory concentration (IC50) of each modified oligonucleotide was calculated using a non-linear fit [inhibitor] vs. response-variable slope (three parameters) formula in GraphPad Prism 7.01.

HEK-APLNR FAP cells = experiment: IP1 accumulation negative control in HEK-APLNR FAP cells (do not express AGTR1); format: cell-based, human; conditions: 24 hours
Method: Activated AGTR1 couples to the Gαq subunit of heterotrimeric G proteins, which activates the phospholipase C (PLC) and subsequently inositol 1,4,5-trisphosphate (IP3) signaling cascade. AGTR1 signaling was measured using an IP-One Gq kit (cisbio #62IPAPEB). The kit detects the accumulation of inositol monophosphate (IP1), a stable downstream metabolite of IP3 induced by activation of a phospholipase C (PLC) cascade.
As a negative control, Compound Nos. 556089 and 1229761 were also tested in HEK293 cells expressing FAP tagged human Apelin receptor (HEK-APLNR FAP cells from Spectragenetics). […] HEK-APLNR FAP cells were cultured with Compound Nos. 556089 and 1229761, described herein above, at the concentrations detailed in Table 2 for 24 hours.

human MALAT1 RNA [2] = experiment: MALAT1 RNA reduction in HEK-AGTR1 FAP cells, free uptake, 24 hours; format: cell-based; conditions: 24 hours; for MALAT (% control): relative to untreated control cells
Method: At the end of the treatment period, total RNA was isolated from the cells and MALAT1 RNA levels were measured by quantitative real-time PC&. […] MALAT1 RNA levels were normalized according to total RNA content, as measured by RIBOGREEN®. Reduction of MALAT1 RNA is presented Table 3 below as percent MALAT1 RNA amount relative to untreated control (UTC) cells. The half maximal inhibitory concentration (IC50) of each modified oligonucleotide was calculated using a non-linear fit [inhibitor] vs. response—variable slope (four parameters) formula in GraphPad Prism 7.01.

mouse MALAT RNA = experiment: MALAT RNA reduction in vivo, C57BL6/J mice, multiple dose; conditions: for ED50: IV day 0, 4, 8
Method: Compound Nos. 556089, 1229761, and 1229762 are described in Table 1 above. Compound Nos. 556089, 1229761, and 1229762 were tested in C57BL6/J mice. The mice were divided into groups of 4 mice each. […] The mice were then sacrificed on day 12. Heart, adipose, adrenal, kidney, and liver tissue was then collected and homogenized and RNA analysis was performed. A group of 4 mice received PBS as a negative control.
RNA was extracted from heart, adipose, adrenal, kidney, and liver tissue for real-time PCR analysis of measurement of RNA expression of MALAT using primer probe set mMALAT1 #2 (forward sequence […] (SEQ ID NO: 5); reverse sequence […] (SEQ ID NO: 6); probe sequence […] (SEQ ID NO: 7)). Results are presented as percent change of RNA, relative to PBS control, normalized to mouse GAPDH.

## Compound No. 1229762: Extended Angiotensin II peptide [N6-(2-azidoacetyl)-K]PPPAGSSPGDRVYIHPF conjugated via linker to 5′-end of MALAT1 modified oligonucleotide TCAGCATTCTAATAGCAGC
Human MALAT1 RNA [1]; 2.7 nM
  MALAT (% control): 100 % control
Human MALAT1 RNA [1]; 8.2 nM
  MALAT (% control): 80 % control
Human MALAT1 RNA [1]; 24.7 nM
  MALAT (% control): 69 % control
Human MALAT1 RNA [1]; 74.1 nM
  MALAT (% control): 66 % control
Human MALAT1 RNA [1]; 222.2 nM
  MALAT (% control): 42 % control
Human MALAT1 RNA [1]; 666.7 nM
  MALAT (% control): 16 % control
Human MALAT1 RNA [1]; 2000 nM
  MALAT (% control): 12 % control
Human MALAT1 RNA [1]; 6000 nM
  MALAT (% control): 9 % control
Human MALAT1 RNA [1]; .10 nM
  MALAT (% control): 103 % control
Human MALAT1 RNA [1]; .3 nM
  MALAT (% control): 106 % control
Human MALAT1 RNA [1]; .9 nM
  MALAT (% control): 101 % control
Human MALAT1 RNA [1]; MALAT1 RNA, three parameter fit
  pIC50: 6.90
HEK-APLNR FAP cells; 0.0256 nM
  IP1 accumulation: 723 nM
HEK-APLNR FAP cells; 0.128 nM
  IP1 accumulation: 634 nM
HEK-APLNR FAP cells; 0.64 nM
  IP1 accumulation: 679 nM
HEK-APLNR FAP cells; 3.2 nM
  IP1 accumulation: 596 nM
HEK-APLNR FAP cells; 16 nM
  IP1 accumulation: 526 nM
HEK-APLNR FAP cells; 80 nM
  IP1 accumulation: 517 nM
HEK-APLNR FAP cells; 400 nM
  IP1 accumulation: 609 nM
HEK-APLNR FAP cells; 2000 nM
  IP1 accumulation: 576 nM
Human MALAT1 RNA [2]; 12 nM
  MALAT (% control): 105 % control
Human MALAT1 RNA [2]; 37 nM
  MALAT (% control): 90 % control
Human MALAT1 RNA [2]; 111 nM
  MALAT (% control): 59 % control
Human MALAT1 RNA [2]; 333 nM
  MALAT (% control): 36 % control
Human MALAT1 RNA [2]; 1000 nM
  MALAT (% control): 41 % control
Human MALAT1 RNA [2]; 3000 nM
  MALAT (% control): 22 % control
Human MALAT1 RNA [2]; 9000 nM
  MALAT (% control): 24 % control
Human MALAT1 RNA [2]; MALAT1 RNA, four parameter fit
  pIC50: 7.00
Human MALAT1 RNA [2]; among compounds tested
  improvement in target knockdown in words: greatest improvement in target knockdown
Mouse MALAT RNA; Adipose, 0.4 μmol/kg IV day 0, 4, 8, sacrifice day 12, relative to PBS
  MALAT-1 RNA (% control): 58.3 % control
Mouse MALAT RNA; Adipose, 1.2 μmol/kg IV day 0, 4, 8, sacrifice day 12, relative to PBS
  MALAT-1 RNA (% control): 40.1 % control
Mouse MALAT RNA; Adipose, 3.6 μmol/kg IV day 0, 4, 8, sacrifice day 12, relative to PBS
  MALAT-1 RNA (% control): 20.5 % control
Mouse MALAT RNA; Adipose
  ED50: 1.385 µmol/kg
Mouse MALAT RNA; Adrenal, 0.4 μmol/kg IV day 0, 4, 8, sacrifice day 12, relative to PBS
  MALAT-1 RNA (% control): 87.8 % control
Mouse MALAT RNA; Adrenal, 1.2 μmol/kg IV day 0, 4, 8, sacrifice day 12, relative to PBS
  MALAT-1 RNA (% control): 66.5 % control
Mouse MALAT RNA; Adrenal, 3.6 μmol/kg IV day 0, 4, 8, sacrifice day 12, relative to PBS
  MALAT-1 RNA (% control): 45.2 % control
Mouse MALAT RNA; Adrenal
  ED50: 1.2 µmol/kg
Mouse MALAT RNA; Heart, 0.4 μmol/kg IV day 0, 4, 8, sacrifice day 12, relative to PBS
  MALAT-1 RNA (% control): 86.2 % control
Mouse MALAT RNA; Heart, 1.2 μmol/kg IV day 0, 4, 8, sacrifice day 12, relative to PBS
  MALAT-1 RNA (% control): 73.4 % control
Mouse MALAT RNA; Heart, 3.6 μmol/kg IV day 0, 4, 8, sacrifice day 12, relative to PBS
  MALAT-1 RNA (% control): 40 % control
Mouse MALAT RNA; Heart
  ED50: 3.14 µmol/kg
Mouse MALAT RNA; Kidney, 0.4 μmol/kg IV day 0, 4, 8, sacrifice day 12, relative to PBS
  MALAT-1 RNA (% control): 50.6 % control
Mouse MALAT RNA; Kidney, 1.2 μmol/kg IV day 0, 4, 8, sacrifice day 12, relative to PBS
  MALAT-1 RNA (% control): 43.8 % control
Mouse MALAT RNA; Kidney, 3.6 μmol/kg IV day 0, 4, 8, sacrifice day 12, relative to PBS
  MALAT-1 RNA (% control): 22.4 % control
Mouse MALAT RNA; Kidney
  ED50: 3.084 µmol/kg
Mouse MALAT RNA; Liver, 0.4 μmol/kg IV day 0, 4, 8, sacrifice day 12, relative to PBS
  MALAT-1 RNA (% control): 40.5 % control
Mouse MALAT RNA; Liver, 1.2 μmol/kg IV day 0, 4, 8, sacrifice day 12, relative to PBS
  MALAT-1 RNA (% control): 15.1 % control
Mouse MALAT RNA; Liver, 3.6 μmol/kg IV day 0, 4, 8, sacrifice day 12, relative to PBS
  MALAT-1 RNA (% control): 5.7 % control
Mouse MALAT RNA; Liver
  ED50: 0.085 µmol/kg
